Data as given in US11666558B2, “Methods of treating intraocular pressure with activators of Tie-2” (EyePoint Pharmaceuticals, Inc., priority 2015, dated 2023).
Like-named read-outs stand apart in the source and are kept apart here.

Assay: Ocular tissue concentrations (aqueous humor, vitreous humor, iris, retina, choroid, cornea) after topical ocular, subcutaneous and intravitreal administration
Type: in vivo, New Zealand White rabbits
Settings: New Zealand White, rabbit; for concentration at 2 h / concentration at 4 h / concentration at 0.5 h / concentration at 1 h: subcutaneous, 5 mg/kg/dose, subcutaneous 5 mg/kg/dose; for concentration at 6 hr / concentration at 24 hr / concentration at 48 hr / concentration at 72 hr: other: intravitreal, 2.5 mg/eye
Protocol: To measure the concentration of Compound 1 in plasma and ocular tissues following topical ocular, subcutaneous, and intravitreal administration, New Zealand White rabbits were administered Compound 1, and plasma and ocular samples were collected at pre-determined time points. Compound 1 formulations were prepared fresh on each day of dosing.
Ocular tissue samples from both eyes of each animal were collected and weights were recorded. Plasma and ocular tissue sample concentrations of Compound 1 were determined by LC-MS/MS.
New Zealand White rabbits weighing 2.5 to 3.5 kg were used on this study. Rabbits were housed one per cage. Animals were not fasted and only healthy animals with no ocular illness were used. Two rabbits per group were sacrificed at each of four ocular tissue sampling time points for a total of eight rabbits per group.
Animals were anesthetized for ocular (topical) and intravitreal dosing following the 12IA7 IACUC protocol. Each rabbit received a bolus dose of test formulation either via topical ocular administration 3 times daily on Days 1 and 2 (at 0, 6, and 12 hours), and once on Day 3 (at 0 hours) into both eyes; via intravitreal administration into both eyes once on Day 1 (at 0 hours); or via subcutaneous administration 2 times daily on Days 1 and 2 (at 0 and 8 hours) and once daily on Day 3 (at 0 hours). Doses were given within an approximately 1 hour window each day where applicable.
On Day 1, for intravitreal administration, or on Day 3, for topical ocular and subcutaneous administration, at the appropriate ocular tissue collection time points, animals were euthanized and both eyes were enucleated immediately. Following enucleation, each eye was rinsed with phosphate-buffered saline. Ocular tissue samples from both eyes of each animal were collected at predetermined time points and weights were recorded. All the samples were frozen immediately on dry ice, and stored at −60° C. to −80° C. pending bioanalysis.
An LC-MS/MS method was developed for the determination of Compound 1 in rabbit aqueous tissues (plasma, aqueous and vitreous humor) and solid ocular tissue samples. A pre-study standard curve was analyzed to determine the specificity, range, and lower limit of quantitation of the method. Plasma and tissue homogenate study samples were extracted and analyzed. All the samples were treated identically to the standards.
One eight-point standard curve was used in each analytical batch. To be accepted, each batch must have had at least five of eight standards with accuracy within ±20% of nominal, except at the lower limit of quantification (LLOQ), where ±25% was acceptable.
Concentration versus time data is plotted in FIGS. 3-16. All data are expressed as ng/g of the free drug. Samples that were below the limit of quantitation (0.2 ng/mL) were not used in the calculation of averages.

[1] = choroid, TABLE 16: Choroid, free acid, Group 3, read-out: Choroid Average
[2] = cornea homogenate, Cornea homogenate, OD, sodium salt, intravitreal 2.5 mg/eye, Group 4, read-out: Cornea Conc. (ng/mL) OD
[3] = cornea homogenate, Cornea homogenate, OS, sodium salt, intravitreal 2.5 mg/eye, Group 4, read-out: Cornea Conc. (ng/mL) OS
[4] = cornea homogenate, Cornea homogenate, right eye, intravitreal 2.5 mg/eye (group 5), individual animals, read-out: Conc. (ng/mL) OD
[5] = cornea homogenate, Cornea homogenate, left eye, intravitreal 2.5 mg/eye (group 5), individual animals, read-out: Conc. (ng/mL) OS
[6] = cornea homogenate, Cornea homogenate, OD, free acid, Group 3, read-out: Cornea Conc. (ng/mL) OD
[7] = cornea homogenate, Cornea homogenate, OS, free acid, Group 3, read-out: Cornea Conc. (ng/mL) OS
[8] = cornea homogenate, Cornea homogenate, OS, sodium salt, Group 2, read-out: Cornea Conc. (ng/mL) OS
[9] = cornea homogenate, Cornea homogenate, OD, sodium salt, Group 2, read-out: Cornea Conc. (ng/mL) OD
[10] = cornea homogenate, TABLE 16: Cornea homogenate, OD, free acid, Group 3, read-out: Cornea Conc. (ng/mL) OD
[11] = cornea homogenate, TABLE 16: Cornea homogenate, OS, free acid, Group 3, read-out: Cornea Conc. (ng/mL) OS
[12] = cornea, Cornea, OD, sodium salt, intravitreal 2.5 mg/eye, Group 4, read-out: Cornea Conc. (ng/g) OD
[13] = cornea, Cornea, OS, sodium salt, intravitreal 2.5 mg/eye, Group 4, read-out: Cornea Conc. (ng/g) OS
[14] = cornea, Cornea, average, intravitreal 2.5 mg/eye (group 5), read-out: Avg.
[15] = cornea, Cornea, right eye, intravitreal 2.5 mg/eye (group 5), individual animals, read-out: Conc. (ng/g) OD
[16] = cornea, Cornea, sodium salt, intravitreal 2.5 mg/eye, Group 4, read-out: Cornea Avg.
[17] = cornea, Cornea, left eye, intravitreal 2.5 mg/eye (group 5), individual animals, read-out: Conc. (ng/g) OS
[18] = cornea, Cornea, OD, free acid, Group 3, read-out: Cornea Conc. (ng/g) OD
[19] = cornea, Cornea, OS, sodium salt, Group 2, read-out: Cornea Conc. (ng/g) OS
[20] = cornea, Cornea, free acid, Group 3, read-out: Cornea Average
[21] = cornea, Cornea, sodium salt, Group 2, read-out: Cornea Average
[22] = cornea, Cornea, OD, sodium salt, Group 2, read-out: Cornea Conc. (ng/g) OD
[23] = cornea, TABLE 16: Cornea, OD, free acid, Group 3, read-out: Cornea Conc. (ng/g) OD
[24] = cornea, TABLE 16: Cornea, free acid, Group 3, read-out: Cornea Average

concentration at 2 h (choroid, TABLE 16: Choroid, OS, free acid, Group 3, read-out: Choroid Conc. (ng/g) OS): 53.2 ng/g
concentration at 2 h [1]: 47.7 ng/g
concentration at 4 h (choroid, TABLE 16: Choroid, OD, free acid, Group 3, read-out: Choroid Conc. (ng/g) OD): 53 ng/g
concentration at 4 h [1]: 61 ng/g
concentration at 6 hr [2]: 6300 ng/mL
concentration at 6 hr [3]: 6940 ng/mL
concentration at 6 hr [4]: 7910 ng/mL
concentration at 24 hr [2]: 2180 ng/mL
concentration at 24 hr [3]: 1560 ng/mL
concentration at 24 hr [5]: 1190 ng/mL
concentration at 24 hr [4]: 1520 ng/mL
concentration at 48 hr [2]: 1050 ng/mL
concentration at 48 hr [3]: 662 ng/mL
concentration at 48 hr [5]: 293 ng/mL
concentration at 48 hr [4]: 437 ng/mL
concentration at 0.5 h [6]: 0.55 ng/mL
concentration at 0.5 h [7]: 0.897 ng/mL
concentration at 0.5 h [8]: 2.46 ng/mL
concentration at 1 h [6]: 1.11 ng/mL
concentration at 1 h [9]: 2.37 ng/mL
concentration at 1 h [8]: 4.52 ng/mL
concentration at 2 h [6]: 0.514 ng/mL
concentration at 2 h [8]: 0.998 ng/mL
concentration at 4 h [6]: 0.942 ng/mL
concentration at 4 h [9]: 0.752 ng/mL
concentration at 4 h [7]: 2.51 ng/mL
concentration at 4 h [8]: 0.784 ng/mL
concentration at 0.5 h [10]: 0.55 ng/mL
concentration at 0.5 h [11]: 0.897 ng/mL
concentration at 1 h [10]: 1.11 ng/mL
concentration at 2 h [10]: 0.514 ng/mL
concentration at 4 h [10]: 0.942 ng/mL
concentration at 4 h [11]: 2.51 ng/mL
concentration at 6 hr [12]: 69300 ng/g
concentration at 6 hr [13]: 76300 ng/g
concentration at 6 hr [14]: 54600 ng/g
concentration at 6 hr [15]: 87000 ng/g
concentration at 6 hr [16]: 71400 ng/g
concentration at 24 hr [12]: 24000 ng/g
concentration at 24 hr [13]: 17200 ng/g
concentration at 24 hr [14]: 17300 ng/g
concentration at 24 hr [17]: 13100 ng/g
concentration at 24 hr [15]: 16700 ng/g
concentration at 24 hr [16]: 23700 ng/g
concentration at 48 hr [12]: 11600 ng/g
concentration at 48 hr [13]: 7280 ng/g
concentration at 48 hr [14]: 4630 ng/g
concentration at 48 hr [17]: 3220 ng/g
concentration at 48 hr [15]: 4810 ng/g
concentration at 48 hr [16]: 7530 ng/g
concentration at 72 hr [14]: 762 ng/g
concentration at 72 hr [16]: 421 ng/g
concentration at 0.5 h [18]: 6.05 ng/g
concentration at 0.5 h (cornea, Cornea, OS, free acid, Group 3, read-out: Cornea Conc. (ng/g) OS): 9.87 ng/g
concentration at 0.5 h [19]: 27.1 ng/g
concentration at 0.5 h [20]: 7.96 ng/g
concentration at 0.5 h [21]: 19.4 ng/g
concentration at 1 h [18]: 12.2 ng/g
concentration at 1 h [22]: 26.1 ng/g
concentration at 1 h [19]: 25.3 ng/g
concentration at 1 h [20]: 12.2 ng/g
concentration at 1 h [21]: 31.1 ng/g
concentration at 2 h [18]: 5.65 ng/g
concentration at 2 h [22]: 11.7 ng/g
concentration at 2 h [19]: 11 ng/g
concentration at 2 h [20]: 5.65 ng/g
concentration at 2 h [21]: 9.45 ng/g
concentration at 4 h [18]: 10.4 ng/g
concentration at 4 h [22]: 8.27 ng/g
concentration at 4 h [19]: 8.62 ng/g
concentration at 4 h [20]: 15.8 ng/g
concentration at 4 h [21]: 10.1 ng/g
concentration at 0.5 h [23]: 6.05 ng/g
concentration at 0.5 h (cornea, TABLE 16: Cornea, OS, free acid, Group 3, read-out: Cornea Conc. (ng/g) OS): 9.87 ng/g
concentration at 0.5 h [24]: 7.96 ng/g
concentration at 1 h [23]: 12.2 ng/g
concentration at 1 h [24]: 12.2 ng/g
concentration at 2 h [23]: 5.65 ng/g
concentration at 2 h [24]: 5.65 ng/g
Structure (SMILES): COC(=O)N[C@@H](Cc1ccccc1)C(=O)N[C@@H](Cc1ccc(NS(=O)(=O)O)cc1)c1csc(-c2cccs2)n1 [Compound 1]
